From patent US4032625A, “Bone-seeking technetium-99m complex” (priority 1975, dated 1977)
Like-named read-outs stand apart in the source and are kept apart here.

Conditions: 2 Hrs

## [85Sr] [^85 Sr]
0.01 mg/kg AEDP
  % Dose in Whole Organ: Blood: 2.99 % Dose
  % Dose in Whole Organ: Kidneys: 0.329 % Dose
  % Dose in Whole Organ: Liver: 0.568 % Dose
  % Dose in Whole Organ: Marrow: 0.465 % Dose
  % Dose in Whole Organ: Muscle: 4.98 % Dose
  % Dose in Whole Organ: W. Femur: 3.22 % Dose
  % Dose in Whole Organ: W. Tibia: 2.71 % Dose
  % Dose/1% Body weight: Blood: 0.427 % Dose/1% Body weight
  % Dose/1% Body weight: Bone Ave: 10.33 % Dose/1% Body weight
  % Dose/1% Body weight: Femur: 10.38 % Dose/1% Body weight
  % Dose/1% Body weight: Kidneys: 0.567 % Dose/1% Body weight
  % Dose/1% Body weight: Liver: 0.177 % Dose/1% Body weight
  % Dose/1% Body weight: Marrow: 0.211 % Dose/1% Body weight
  % Dose/1% Body weight: Muscle: 0.116 % Dose/1% Body weight
  % Dose/1% Body weight: Pelvis: 10.66 % Dose/1% Body weight
  % Dose/1% Body weight: Spine: 8.98 % Dose/1% Body weight
  % Dose/1% Body weight: Tibia: 11.28 % Dose/1% Body weight
  % Dose: Urine: 20.97 % Dose
0.01 mg/kg EHDP
  % Dose in Whole Organ: Blood: 3.19 % Dose
  % Dose in Whole Organ: Kidneys: 0.43 % Dose
  % Dose in Whole Organ: Liver: 0.74 % Dose
  % Dose in Whole Organ: Marrow: 0.42 % Dose
  % Dose in Whole Organ: One Femur: 2.83 % Dose
  % Dose/1%-body weight: Blood: 0.456 % Dose/1%-body weight
  % Dose/1%-body weight: Femur: 9.70 % Dose/1%-body weight
  % Dose/1%-body weight: Kidney: 0.655 % Dose/1%-body weight
  % Dose/1%-body weight: Liver: 0.206 % Dose/1%-body weight
  % Dose/1%-body weight: Marrow: 0.192 % Dose/1%-body weight
  % Dose: Urine: 23.66 % Dose
0.01 mg/kg MDP
  % Dose in Whole Organ: Blood: 3.27 % Dose
  % Dose in Whole Organ: Kidneys: 0.34 % Dose
  % Dose in Whole Organ: Liver: 0.65 % Dose
  % Dose in Whole Organ: Marrow: 0.53 % Dose
  % Dose in Whole Organ: Muscle: 5.69 % Dose
  % Dose in Whole Organ: One Femur: 3.46 % Dose
  % Dose/1% Body weight: Blood: 0.47 % Dose/1% body weight
  % Dose/1% Body weight: Femur: 13.93 % Dose/1% body weight
  % Dose/1% Body weight: Kidneys: 0.54 % Dose/1% body weight
  % Dose/1% Body weight: Liver: 0.16 % Dose/1% body weight
  % Dose/1% Body weight: Marrow: 0.24 % Dose/1% body weight
  % Dose/1% Body weight: Muscle: 0.13 % Dose/1% body weight
  % Dose/1% Body weight: Pelvis: 13.55 % Dose/1% body weight
  % Dose/1% Body weight: Spine: 12.78 % Dose/1% body weight
  % Dose/1% Body weight: Tibia: 7.14 % Dose/1% body weight
  % Dose/1% body weight: Ave Bone: 11.85 % Dose/1% body weight
  % Dose: Urine: 10.3 % Dose
0.05 mg/kg AEDP
  % Dose in Whole Organ: Blood: 2.50 % Dose
  % Dose in Whole Organ: Kidneys: 0.353 % Dose
  % Dose in Whole Organ: Liver: 0.613 % Dose
  % Dose in Whole Organ: Marrow: 0.486 % Dose
  % Dose in Whole Organ: Muscle: 5.09 % Dose
  % Dose in Whole Organ: W. Femur: 3.51 % Dose
  % Dose in Whole Organ: W. Tibia: 3.15 % Dose
  % Dose/1% Body weight: Blood: 0.357 % Dose/1% Body weight
  % Dose/1% Body weight: Bone Ave: 12.34 % Dose/1% Body weight
  % Dose/1% Body weight: Femur: 12.62 % Dose/1% Body weight
  % Dose/1% Body weight: Kidneys: 0.551 % Dose/1% Body weight
  % Dose/1% Body weight: Liver: 0.134 % Dose/1% Body weight
  % Dose/1% Body weight: Marrow: 0.221 % Dose/1% Body weight
  % Dose/1% Body weight: Muscle: 0.118 % Dose/1% Body weight
  % Dose/1% Body weight: Pelvis: 11.44 % Dose/1% Body weight
  % Dose/1% Body weight: Spine: 11.60 % Dose/1% Body weight
  % Dose/1% Body weight: Tibia: 13.69 % Dose/1% Body weight
  % Dose: Urine: 11.95 % Dose
0.05 mg/kg EHDP
  % Dose in Whole Organ: Blood: 3.39 % Dose
  % Dose in Whole Organ: Kidneys: 0.46 % Dose
  % Dose in Whole Organ: Liver: 0.77 % Dose
  % Dose in Whole Organ: Marrow: 0.61 % Dose
  % Dose in Whole Organ: One Femur: 3.33 % Dose
  % Dose/1%-body weight: Blood: 0.485 % Dose/1%-body weight
  % Dose/1%-body weight: Femur: 11.51 % Dose/1%-body weight
  % Dose/1%-body weight: Kidney: 0.616 % Dose/1%-body weight
  % Dose/1%-body weight: Liver: 0.210 % Dose/1%-body weight
  % Dose/1%-body weight: Marrow: 0.291 % Dose/1%-body weight
  % Dose: Urine: 13.4 % Dose
0.05 mg/kg MDP
  % Dose in Whole Organ: Blood: 3.66 % Dose
  % Dose in Whole Organ: Kidneys: 0.46 % Dose
  % Dose in Whole Organ: Liver: 0.71 % Dose
  % Dose in Whole Organ: Marrow: 0.53 % Dose
  % Dose in Whole Organ: Muscle: 5.89 % Dose
  % Dose in Whole Organ: One Femur: 2.53 % Dose
  % Dose/1% Body weight: Blood: 0.52 % Dose/1% body weight
  % Dose/1% Body weight: Femur: 9.10 % Dose/1% body weight
  % Dose/1% Body weight: Kidneys: 0.9 % Dose/1% body weight
  % Dose/1% Body weight: Liver: 0.22 % Dose/1% body weight
  % Dose/1% Body weight: Marrow: 0.24 % Dose/1% body weight
  % Dose/1% Body weight: Muscle: 0.14 % Dose/1% body weight
  % Dose/1% Body weight: Pelvis: 8.33 % Dose/1% body weight
  % Dose/1% Body weight: Spine: 6.75 % Dose/1% body weight
  % Dose/1% Body weight: Tibia: 4.94 % Dose/1% body weight
  % Dose/1% body weight: Ave Bone: 7.29 % Dose/1% body weight
  % Dose: Urine: 23.16 % Dose
0.1 mg/kg AEDP
  % Dose in Whole Organ: Blood: 2.48 % Dose
  % Dose in Whole Organ: Kidneys: 0.324 % Dose
  % Dose in Whole Organ: Liver: 0.654 % Dose
  % Dose in Whole Organ: Marrow: 0.244 % Dose
  % Dose in Whole Organ: Muscle: 5.15 % Dose
  % Dose in Whole Organ: W. Femur: 3.27 % Dose
  % Dose in Whole Organ: W. Tibia: 2.99 % Dose
  % Dose/1% Body weight: Blood: 0.354 % Dose/1% Body weight
  % Dose/1% Body weight: Bone Ave: 10.48 % Dose/1% Body weight
  % Dose/1% Body weight: Femur: 10.97 % Dose/1% Body weight
  % Dose/1% Body weight: Kidneys: 0.441 % Dose/1% Body weight
  % Dose/1% Body weight: Liver: 0.182 % Dose/1% Body weight
  % Dose/1% Body weight: Marrow: 0.166 % Dose/1% Body weight
  % Dose/1% Body weight: Muscle: 0.136 % Dose/1% Body weight
  % Dose/1% Body weight: Pelvis: 8.66 % Dose/1% Body weight
  % Dose/1% Body weight: Spine: 10.56 % Dose/1% Body weight
  % Dose/1% Body weight: Tibia: 11.71 % Dose/1% Body weight
  % Dose: Urine: 12.1 % Dose
0.1 mg/kg EHDP
  % Dose in Whole Organ: Blood: 3.10 % Dose
  % Dose in Whole Organ: Kidneys: 0.30 % Dose
  % Dose in Whole Organ: Liver: 0.64 % Dose
  % Dose in Whole Organ: Marrow: 0.43 % Dose
  % Dose in Whole Organ: One Femur: 3.42 % Dose
  % Dose/1%-body weight: Blood: 0.443 % Dose/1%-body weight
  % Dose/1%-body weight: Femur: 10.9 % Dose/1%-body weight
  % Dose/1%-body weight: Kidney: 0.513 % Dose/1%-body weight
  % Dose/1%-body weight: Liver: 0.230 % Dose/1%-body weight
  % Dose/1%-body weight: Marrow: 0.195 % Dose/1%-body weight
  % Dose: Urine: 11.31 % Dose
0.1 mg/kg MDP
  % Dose in Whole Organ: Blood: 3.95 % Dose
  % Dose in Whole Organ: Kidneys: 0.66 % Dose
  % Dose in Whole Organ: Liver: 1.05 % Dose
  % Dose in Whole Organ: Marrow: 0.57 % Dose
  % Dose in Whole Organ: Muscle: 9.32 % Dose
  % Dose in Whole Organ: One Femur: 2.80 % Dose
  % Dose/1% Body weight: Blood: 0.56 % Dose/1% body weight
  % Dose/1% Body weight: Femur: 10.0 % Dose/1% body weight
  % Dose/1% Body weight: Kidneys: 1.00 % Dose/1% body weight
  % Dose/1% Body weight: Liver: 0.30 % Dose/1% body weight
  % Dose/1% Body weight: Marrow: 0.26 % Dose/1% body weight
  % Dose/1% Body weight: Muscle: 0.22 % Dose/1% body weight
  % Dose/1% Body weight: Pelvis: 12.2 % Dose/1% body weight
  % Dose/1% Body weight: Spine: 8.45 % Dose/1% body weight
  % Dose/1% Body weight: Tibia: 6.05 % Dose/1% body weight
  % Dose/1% body weight: Ave Bone: 9.17 % Dose/1% body weight
  % Dose: Urine: 15.4 % Dose
0.5 mg/kg AEDP
  % Dose in Whole Organ: Blood: 4.36 % Dose
  % Dose in Whole Organ: Kidneys: 0.384 % Dose
  % Dose in Whole Organ: Liver: 0.720 % Dose
  % Dose in Whole Organ: Marrow: 0.456 % Dose
  % Dose in Whole Organ: Muscle: 6.51 % Dose
  % Dose in Whole Organ: W. Femur: 2.75 % Dose
  % Dose in Whole Organ: W. Tibia: 2.42 % Dose
  % Dose/1% Body weight: Blood: 0.624 % Dose/1% Body weight
  % Dose/1% Body weight: Bone Ave: 10.78 % Dose/1% Body weight
  % Dose/1% Body weight: Femur: 10.43 % Dose/1% Body weight
  % Dose/1% Body weight: Kidneys: 0.924 % Dose/1% Body weight
  % Dose/1% Body weight: Liver: 0.270 % Dose/1% Body weight
  % Dose/1% Body weight: Marrow: 0.207 % Dose/1% Body weight
  % Dose/1% Body weight: Muscle: 0.151 % Dose/1% Body weight
  % Dose/1% Body weight: Pelvis: 11.42 % Dose/1% Body weight
  % Dose/1% Body weight: Spine: 9.87 % Dose/1% Body weight
  % Dose/1% Body weight: Tibia: 11.37 % Dose/1% Body weight
  % Dose: Urine: 10.47 % Dose
0.5 mg/kg EHDP
  % Dose in Whole Organ: Blood: 4.43 % Dose
  % Dose in Whole Organ: Kidneys: 0.48 % Dose
  % Dose in Whole Organ: Liver: 0.76 % Dose
  % Dose in Whole Organ: Marrow: 0.34 % Dose
  % Dose in Whole Organ: One Femur: 2.48 % Dose
  % Dose/1%-body weight: Blood: 0.633 % Dose/1%-body weight
  % Dose/1%-body weight: Femur: 9.213 % Dose/1%-body weight
  % Dose/1%-body weight: Kidney: 0.972 % Dose/1%-body weight
  % Dose/1%-body weight: Liver: 0.244 % Dose/1%-body weight
  % Dose/1%-body weight: Marrow: 0.152 % Dose/1%-body weight
  % Dose: Urine: 19.67 % Dose
0.5 mg/kg MDP
  % Dose in Whole Organ: Blood: 3.11 % Dose
  % Dose in Whole Organ: Kidneys: 0.45 % Dose
  % Dose in Whole Organ: Liver: 0.69 % Dose
  % Dose in Whole Organ: Marrow: 0.67 % Dose
  % Dose in Whole Organ: Muscle: 5.65 % Dose
  % Dose in Whole Organ: One Femur: 2.96 % Dose
  % Dose/1% Body weight: Blood: 0.45 % Dose/1% body weight
  % Dose/1% Body weight: Femur: 11.32 % Dose/1% body weight
  % Dose/1% Body weight: Kidneys: 0.69 % Dose/1% body weight
  % Dose/1% Body weight: Liver: 0.23 % Dose/1% body weight
  % Dose/1% Body weight: Marrow: 0.30 % Dose/1% body weight
  % Dose/1% Body weight: Muscle: 0.13 % Dose/1% body weight
  % Dose/1% Body weight: Pelvis: 8.68 % Dose/1% body weight
  % Dose/1% Body weight: Spine: 8.92 % Dose/1% body weight
  % Dose/1% Body weight: Tibia: 6.16 % Dose/1% body weight
  % Dose/1% body weight: Ave Bone: 8.77 % Dose/1% body weight
  % Dose: Urine: 15.16 % Dose
